In test [1] the test system is chicken erythrocyte nuclear chromatin. Kind of test: Blocking of acridine orange intercalation into chicken erythrocyte nuclear chromatin, fluorescence microscopy. The note with it: 10 μM AO. On the set-up: key: 0: no blocking effect; 1: slight blocking; 2: moderate blocking; 3: almost total blocking (very slight green fluorescence detectable); 4: complete blockage (no green fluorescence detectable). As to the method:
Microscope slides coated with chicken erythrocyte were stained with 10 μM AO at three separate areas on the microscope slide as described above. Slides were exposed to […] different xanthies at four different molar ratios for three different periods of time. The xanthines, theophylline, caffeine, 1,3,7,9-tetramethyl uric acid, and aminophylline, were prepared with 10 μM AO at molar ratios of 50:1, 500:1, 2500:1, 5000:1 xanthine to AO in distilled water. Microscope slides coated with chicken erythrocytes were exposed to a mixture of xanthine/AO at each molar ratio for periods of 10 min, 1 min, and 10 seconds under static (non-agitated) conditions. […] Following exposure to the xanthine/AO or to the DNA/AO solutions, the slides were rinsed in distilled water, allowed to dry at room temperature, examined by fluorescence microscopy, and the color of the nuclei recorded. Results were recorded as follows: 0=no blocking effect; 1=slight blocking; 2=moderate blocking; 3=almost total blocking (very slight green fluorescence detectable); 4=complete blockage (no green fluorescence detectable).
In the implementation shown in Table 4-2, the relative intensity of the green fluorescent color ([…]) utilizing a red blocking filter (≧600 nm) was used as the indicator of the intensity of staining. The molar ratio is expressed as the ratio of xanthine concentration to 10 μM AO. Results were recorded as follows: 0=no blocking effect; 1=slight blocking; 2=moderate blocking; 3=almost total blocking (very slight green fluorescence detectable); 4=complete blockage (no green fluorescence detectable). *Kassoc values for the xanthines are taken from Table 2-1 and the Kassoc values for DNA were taken from Table 3-2.

Test [2] is described as follows: Fluorescence of 2 μM acridine orange solution with NaCl, caffeine and/or dsDNA. On the procedure:
The addition of salt could possibly affect the Kassoc values of AO and the other reactants by modifying the charge on the reactants and/or decreasing the influence of water molecules. To minimize AO self-association, i.e. dimerization, a relatively low concentration of AO [2 μM] may be used. The interaction between reactants was analyzed by spectrofluorometric methods at λex 485 nm and monitored at λem 530 nm (green).
Solutions of 2 μM AO alone and in various combinations with 150 mM NaCl, 5 mM CAF, 2 mM DNA were studied. Table 3-2 summarizes the results and the statistical analysis for differences between means.
In Table 3-2, fluorescence (λex=485 nm and λem=530 nm) was measured for AO [2 μM] in the absence of, and in the presence of, NaCl [150 mM], caffeine [5 mM], and DNA [2 mM] alone or in combination. Significant differences were found by one-way ANOVA (p≦0.05). […] It is noted that n=3 unless denoted by an * which indicates n=4.
Spectrofluorometric analyses at λex 485 nm and λem 530 nm were performed on solutions of 2:M AO in combination with 5 mM CAF and 2 mM dsDNA, with and without 150 mM NaCl. […] Note that CAF had no significant effect on the fluorescence of the AO solution when in the presence of NaCl (SNK letter designation “B”).

Setting [3] is: Xanthine/AO molar ratio 5000:1, exposure 10 min.
Where [4] appears, read: molar ratio 50:1, exposure 10 sec.
Where [5] appears, read: molar ratio 50:1, exposure 1 min.
[6] abbreviates: molar ratio 50:1, exposure 10 min.
Setting [7] is: molar ratio 500:1, exposure 10 sec.
The mark [8] stands for this setting: molar ratio 500:1, exposure 1 min.
[9] abbreviates: molar ratio 500:1, exposure 10 min.
The mark [10] stands for this setting: molar ratio 2500:1, exposure 10 sec.
Where [11] appears, read: molar ratio 2500:1, exposure 1 min.
Setting [12] is: molar ratio 2500:1, exposure 10 min.
Setting [13] is: molar ratio 5000:1, exposure 10 sec.
Where [14] appears, read: molar ratio 5000:1, exposure 1 min.
Setting [15] is: 2 μM AO, caffeine 5 mM, dsDNA 2 mM where present, λex 485 nm, λem 530 nm.

As to `Cn1c(=O)c2[nH]cnc2n(C)c1=O.NCCN` [1,3-dimethyl xanthine ethylenediamine], the “blocking of AO intercalation” value is listed as 3 in test [1] (setting [3]); 0 in test [1] (setting [4]); 0 in test [1] (setting [5]); 0 in test [1] (setting [6]); 2 in test [1] (setting [7]); 2 in test [1] (setting [8]). Further, the “blocking of AO intercalation” value was determined as 0 in test [1] (setting [9]); 3 in test [1] (setting [10]); 2 in test [1] (setting [11]); 1 in test [1] (setting [12]); 3 in test [1] (setting [13]); 3 in test [1] (setting [14]).
In the case of `CN(C)c1ccc2cc3ccc(N(C)C)cc3nc2c1.Cl` [AO, 3,6-bis[dimethylamino]acridine hydrochloride], in test [2] (setting [15]), the “Fluorescence With NaCl [150 mM] Mean ± S.E.” value was 635.5 ± 17.7 (B) and the “Fluorescence Without NaCl Mean ± S.E.” value is on record as 514.0 ± 6.5 (A) ^.
Turning to `Cn1c(=O)c2c(ncn2C)n(C)c1=O` [1,3,7-trimethyl xanthine (caffeine), 1,3,7-trimethyl xanthine], in test [2] (2 mM DNA or 5 mM CAF, without NaCl), the “increase of fluorescence of 2 μM AO at 530 nm by addition” value was found to be 29%. Besides, the “increase in fluorescence intensity of AO by addition” value in test [2] (DNA or CAF in the presence of 150 mM NaCl) was 36%. In addition, the “blocking of AO intercalation” value in test [1] (setting [3]) was determined as 1; in test [1] (setting [4]), 0; in test [1] (setting [5]), 0; in test [1] (setting [6]), 0; in test [1] (setting [7]) it was 2; in test [1] (setting [8]), 0. In addition, the “blocking of AO intercalation” value in test [1] (setting [9]) came out at 0; in test [1] (setting [10]), 2; in test [1] (setting [11]), 1; in test [1] (setting [12]), 0; in test [1] (setting [13]) it was 3; in test [1] (setting [14]) it was 2.

For the origin of these results see patent publication US7662767B2, “Polynucleotide intercalator interceptors and inhibitors” (Materials Evolution and Development USA, Inc., priority 2000, dated 2010).
